Experimental data as given in patent publication US20190134000A1, “COMPOUNDS TO PROMOTE NORMAL PROCESSING OF APP” (Buck Institute for Research on Aging, priority 2016, published 2019).
Converted amounts (≈) assume the structure as drawn. Like-named read-outs stand apart in the source and are kept apart here.

Legend:
CYP3A4 = CYP3A4 (Homo sapiens, UniProt P08684); assay: CYP inhibition screen CYP3A4; assay type: in vitro ADME; details: for inhibition at 10 µM / inhibition at 30 µM: human
CYP2D6 = CYP2D6 (Homo sapiens, UniProt P10635); assay: CYP inhibition screen CYP2D6; assay type: in vitro ADME
[1] = Acute non-GLP toxicity study, oral 450 mg/kg; assay type: in vivo, rats; details: for concentration at 24 h: rat, in vivo
Protocol: Acute non-GLP toxicity study was performed using an oral dose of 450 mg/kg. At 24 hours post-dosing, brain levels were 2924 ng/g and plasma levels were 115 ng/ml.

S9 stability, mouse = assay type: in vitro ADME
S9 stability, guinea pig = assay type: in vitro ADME
B254 mice = assay: C41 lead confirmation in B254 mice; assay type: in vivo; details: 4 weeks oral 4 mkd
Description: FIG. 15 illustrates the result of C41 lead confirmation in B254 mice. Panel A: Novel Location Recognition; Panel B: Novel Object Recognition; Panel C: sAPPα; Panel D: Aβ40; Panel E: Aβ42; Panel F: p-tau/tau.

S9 stability, human = assay type: in vitro ADME
AD model mouse = assay: In vivo study of C41 and F03 in an AD model mouse
Description: Panel A: Novel object preference; Panel B: Novel location preference; Panel C: sAPPα.
Panel A: sAPPβ; Panel B: the sAPPα/sAPPβ ratio.
Compounds meeting the initial screening criteria were then subjected to in vivo testing.

AD model mice = assay: Oral efficacy studies in mice; assay type: in vivo
Description: Thus, C41 was identified as a good new chemical entity (NCE) based on the testing. In particular C41 in vitro and in vivo profile met the advancement criteria in SH-SYSY and CHO-7W in vitro screens.

CYP1A2 = target: T1, CYP1A2 (Homo sapiens, UniProt P05177); assay: CYP inhibition screen CYP1A2; assay type: in vitro ADME
T1 sequence (P05177 1-516): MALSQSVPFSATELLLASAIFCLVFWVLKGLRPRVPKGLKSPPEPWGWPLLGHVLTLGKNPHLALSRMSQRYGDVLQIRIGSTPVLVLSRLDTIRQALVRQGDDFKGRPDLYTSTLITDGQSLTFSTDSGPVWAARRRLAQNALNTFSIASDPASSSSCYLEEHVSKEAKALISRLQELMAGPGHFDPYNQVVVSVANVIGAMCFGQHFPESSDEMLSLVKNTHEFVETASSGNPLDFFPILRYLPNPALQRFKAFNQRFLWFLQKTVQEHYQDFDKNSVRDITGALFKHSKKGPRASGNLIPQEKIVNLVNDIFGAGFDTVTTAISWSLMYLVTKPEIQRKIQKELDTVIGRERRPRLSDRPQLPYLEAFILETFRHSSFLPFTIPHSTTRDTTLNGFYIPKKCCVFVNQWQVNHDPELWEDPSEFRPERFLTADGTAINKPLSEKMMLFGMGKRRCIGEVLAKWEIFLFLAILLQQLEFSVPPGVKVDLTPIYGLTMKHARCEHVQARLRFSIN

CYP3A4, sequence (P08684 whole entry): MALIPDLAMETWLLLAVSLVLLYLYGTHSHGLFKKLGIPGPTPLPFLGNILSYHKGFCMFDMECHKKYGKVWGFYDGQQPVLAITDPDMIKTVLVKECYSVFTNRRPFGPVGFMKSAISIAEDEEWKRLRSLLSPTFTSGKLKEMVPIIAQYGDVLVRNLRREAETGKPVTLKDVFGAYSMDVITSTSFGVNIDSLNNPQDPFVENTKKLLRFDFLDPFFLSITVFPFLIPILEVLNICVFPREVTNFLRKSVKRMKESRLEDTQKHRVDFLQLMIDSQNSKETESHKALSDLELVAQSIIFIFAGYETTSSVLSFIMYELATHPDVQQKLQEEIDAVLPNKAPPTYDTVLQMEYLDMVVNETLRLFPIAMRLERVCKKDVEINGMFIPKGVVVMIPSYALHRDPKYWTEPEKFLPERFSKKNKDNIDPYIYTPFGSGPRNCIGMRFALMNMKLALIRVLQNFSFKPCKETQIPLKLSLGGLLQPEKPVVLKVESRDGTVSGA
CYP2D6, sequence (P10635 whole entry): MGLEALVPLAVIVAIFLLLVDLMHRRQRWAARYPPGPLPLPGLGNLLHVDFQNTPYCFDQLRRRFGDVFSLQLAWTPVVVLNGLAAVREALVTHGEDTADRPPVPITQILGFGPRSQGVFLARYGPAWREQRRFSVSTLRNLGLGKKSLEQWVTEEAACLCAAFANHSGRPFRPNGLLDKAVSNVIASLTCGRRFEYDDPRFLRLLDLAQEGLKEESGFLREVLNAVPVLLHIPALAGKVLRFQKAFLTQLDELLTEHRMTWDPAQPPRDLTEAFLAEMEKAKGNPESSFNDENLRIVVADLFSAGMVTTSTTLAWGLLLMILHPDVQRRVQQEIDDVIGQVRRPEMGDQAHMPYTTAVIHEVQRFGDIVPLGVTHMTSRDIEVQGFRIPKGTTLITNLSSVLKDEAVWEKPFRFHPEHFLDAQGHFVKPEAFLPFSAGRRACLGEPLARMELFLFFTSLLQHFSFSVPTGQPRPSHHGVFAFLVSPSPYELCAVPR

## CN1[C@@H]2CC[C@H]1C[C@@H](OC(=O)c1c[nH]c3cc(F)ccc13)C2 [Compound C41, (1R,3R,5S)-8-methyl-8-azabicyclo[3.2.1]octan-3-yl 6-fluoro-1H-indole-3-carboxylate]
CYP3A4
  IC50: > 30 µM
CYP3A4; CYP3A4 midazolam inhibition
  inhibition at 10 µM: 3.1%
  inhibition at 30 µM: 3.8%
CYP3A4; CYP3A4 testosterone inhibition
  inhibition at 10 µM: 5.2%
  inhibition at 30 µM: 2.5%
CYP2D6
  IC50: > 30 µM
CYP2D6; human
  inhibition at 10 µM: 19.9%
  inhibition at 30 µM: 36.1%
[1]; oral 450 mg/kg, likely due to the corn syrup vehicle
  acute toxicity finding: some dilation of the vessels on the surface of the intestine
[1]; po, 450 mg/kg
  concentration at 24 h: 115 ng/mL
[1]; oral 450 mg/kg, 24 hours post-dosing, read-out: brain levels
  concentration at 24 h: 2920 ng/g
S9 stability, mouse
  Metabolic Half-Life Mouse S9: >1 h
  half-life: > 1 h
physchem
  solubility: 80 mM (≈ 24.2 mg/mL)
physchem; water
  solubility: 85 mM (≈ 25.7 mg/mL)
S9 stability, guinea pig
  Metabolic Half-Life Guinea Pig S9: >1 h
  half-life: > 1 h
B254 mice
  Aβ40: trend for Aβ40 and 42 to decrease
  Aβ42: trend for Aβ40 and 42 to decrease
  novel location recognition: some improvement
  novel object recognition: significant improvement
  p-Tau/Tau ratio: significantly decreased
S9 stability, human
  Metabolic Half-Life Human S9: >1 h
  half-life: > 1 h
AD model mouse
  Aβ1-42 levels in vivo: did not change
  Aβ40/42 ratio in vivo: not changed
  sAPPα in vivo: increased significantly
  sAPPα/Aβ1-42 ratio in vivo: not increased
  sAPPα/sAPPβ ratio in vivo: significantly greater increase with C41 than F03
  sAPPβ in vivo: greater decrease in sAPPβ than F03
  short-term working object memory (novel object preference): approximately 85 % of NTg level
  spatial memory, novel location recognition test: improved spatial memory
AD model mice; mice
  efficacy in dose-response studies: Efficacy was seen
AD model mice; mice, oral, 4 weeks
  efficacy in 4-week standard oral study: Efficacy was seen
AD model mice; old AD model mice with advanced pathology
  efficacy in 12-week study: efficacy was seen
CYP1A2
  IC50: > 30 µM
CYP1A2; human
  inhibition at 10 µM: 0.35%
  inhibition at 30 µM: 0.33%
